What was measured:
[1] = test system: normal primary NK cells, pool 3 (3 donors) (IL-2 2.5 ng/mL); assay: percent inhibition of viability; higher = more inhibition; conditions: 72 h
[2] = test system: NK-92 (IL-2 2.5 ng/mL); assay: as above; conditions: 72 h
[3] = test system: SNK-6 (IL-2 2.5 ng/mL); assay: as above; conditions: 72 h
[4] = test system: normal primary NK cells, pool 1 (3 donors), resting (IL-2 0 ng/mL); assay: as above; conditions: 72 h
[5] = test system: YT (IL-2 2.5 ng/mL); assay: as above; conditions: 72 h
[6] = test system: normal primary NK cells, pool 2 (3 donors) (IL-2 2.5 ng/mL); assay: as above; conditions: 72 h
[7] = test system: normal primary NK cells, pool 1 (3 donors) (IL-2 2.5 ng/mL); assay: as above; conditions: 72 h
[8] = test system: DERL-7 (IL-2 2.5 ng/mL); assay: as above; conditions: 72 h
[9] = test system: IMC-1 (IL-2 20 ng/mL); assay: as above; conditions: 72 h
[10] = test system: NKL (IL-2 2.5 ng/mL); assay: as above; conditions: 72 h
[11] = test system: NK-YS (IL-2 2.5 ng/mL); assay: as above; conditions: 72 h
[12] = test system: KAI3 (IL-2 2.5 ng/mL); assay: as above; conditions: 72 h
[13] = test system: KHYG-1 (IL-2 2.5 ng/mL); assay: as above; conditions: 72 h
[14] = test system: normal NK cells expanded with K562-aAPC; assay: drug sensitivity score (DSS) (DSS units); higher = more sensitive; extreme values may be limits of the assay; conditions: 72 h; IL-2 2.5 ng/mL
Method: (§1)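 Drug sensitivity and resistance testing on K562-aAPC-expanded normal NK cells: 5 concentrations (10-fold steps over a 10,000-fold range), 72 h at 37 °C, viability by CellTiter-Glo normalised to DMSO and benzethonium chloride controls; DSS from the fitted curve.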

[15] = test system: normal NK cells expanded with K562-aAPC; assay: percent inhibition of viability; higher = more inhibition; conditions: 72 h, IL-2 2.5 ng/mL
Method: as §1

[16] = test system: normal primary NK cells, pool 3 (3 donors) (IL-2 2.5 ng/mL); assay: drug sensitivity score (DSS) (DSS units); higher = more sensitive; extreme values may be limits of the assay; conditions: 72 h
[17] = test system: NK-92 (IL-2 2.5 ng/mL); assay: as above; conditions: 72 h
[18] = test system: SNK-6 (IL-2 2.5 ng/mL); assay: as above; conditions: 72 h
[19] = test system: normal primary NK cells, pool 1 (3 donors), resting (IL-2 0 ng/mL); assay: as above; conditions: 72 h
[20] = test system: YT (IL-2 2.5 ng/mL); assay: as above; conditions: 72 h
[21] = test system: normal primary NK cells, pool 2 (3 donors) (IL-2 2.5 ng/mL); assay: as above; conditions: 72 h
[22] = test system: normal primary NK cells, pool 1 (3 donors) (IL-2 2.5 ng/mL); assay: as above; conditions: 72 h
[23] = test system: DERL-7 (IL-2 2.5 ng/mL); assay: as above; conditions: 72 h
[24] = test system: IMC-1 (IL-2 20 ng/mL); assay: as above; conditions: 72 h
[25] = test system: NKL (IL-2 2.5 ng/mL); assay: as above; conditions: 72 h
[26] = test system: NK-YS (IL-2 2.5 ng/mL); assay: as above; conditions: 72 h
[27] = test system: KAI3 (IL-2 2.5 ng/mL); assay: as above; conditions: 72 h
[28] = test system: KHYG-1 (IL-2 2.5 ng/mL); assay: as above; conditions: 72 h

CC(C)(C)NC(=O)[C@H]1CC[C@H]2[C@@H]3CC[C@H]4NC(=O)C=C[C@]4(C)[C@H]3CC[C@]12C [Finasteride] (max concentration tested 10000 nM)
percent inhibition of viability [%]
Conditions	1 nM	10 nM	100 nM	1000 nM	10000 nM
[1]	1.72	-0.73	15.2	-6.78	1.67
[2]	-2.71	-10.9	0.46	4.24	44.5
[3]	-3.02	-28.7	-17.3	-25.3	-11.3
[4]	1.92	14	3.85	6.98	20.4
[5]	4.41	-7.13	5.2	-3.12	30.2
[6]	-2.14	-1.25	3.98	-1.8	12.4
[7]	-9.53	1.23	3.62	-7.18	3.28
[8]	8.57	-6.64	5.89	-0.19	12.4
[9]	-6.06	-4.68	-1.34	2.37	27.1
[10]	5.94	-9.09	10.7	13	34.2
[11]	-10.4	-1.41	-5.34	5.54	10.5
[12]	2.67	5.19	10.5	4.13	28.6
[13]	-6.44	-5.37	3.63	2.04	10.9
[15]	-10.9	-11.1	-5.78	1.82	14.1

Conditions	drug sensitivity score
[14]	0.32
[16]	0
[17]	2.97
[18]	0
[19]	0.89
[20]	1.11
[21]	0.04
[22]	0
[23]	0.06
[24]	1.45
[25]	2.88
[26]	0.05
[27]	1.87
[28]	0.04

Cc1ccc(-n2nc(C(C)(C)C)cc2NC(=O)Nc2ccc(OCCN3CCOCC3)c3ccccc23)cc1 [Doramapimod] (max concentration tested 10000 nM)
percent inhibition of viability [%]
Conditions	1 nM	10 nM	100 nM	1000 nM	10000 nM
[1]	-11.6	-1.56	4.57	2.15	85.2
[2]	13	11	8.99	11.7	71.5
[3]	-8.06	6.04	-5.96	-39.3	6.22
[4]	0.09	-4.02	-3.55	3.17	94.7
[5]	1.11	9.26	7.83	16.7	45
[6]	-9.43	-4.09	6.14	-0.89	85.1
[7]	2.74	-0.9	-0.42	-10.6	91.3
[8]	-1.24	0.45	-6.35	0.4	31.3
[9]	-7.13	-0.74	1.31	8.39	27.3
[10]	-7.33	-0.1	12	80.7	98.6
[11]	-8.49	3.68	5.33	24.4	63.3
[12]	-7.62	9.59	18.9	43.5	68
[13]	-0.62	4.98	0.58	7.1	56.5
[15]	-6.83	-0.74	-1.74	16.5	52.8

Conditions	drug sensitivity score
[14]	5.25
[16]	5.02
[17]	5.9
[18]	0
[19]	5.69
[20]	3.98
[21]	4.66
[22]	4.39
[23]	1.44
[24]	2.23
[25]	16.4
[26]	6.27
[27]	10.7
[28]	4.24

Cn1ncnc1[C@H]1c2n[nH]c(=O)c3cc(F)cc(c23)N[C@@H]1c1ccc(F)cc1 [Talazoparib] (max concentration tested 1000 nM)
percent inhibition of viability [%]
Conditions	0.1 nM	1 nM	10 nM	100 nM	1000 nM
[1]	-7.78	-0.35	2.46	5.72	21.3
[2]	15.4	8.78	27.8	36.7	87.8
[3]	1.83	6.37	16.4	33.1	90.8
[4]	10.7	-5.43	-1.52	-18.5	4.03
[5]	-2.25	0.5	0.86	-5.82	-1.36
[6]	-10.4	6.14	1.12	1.32	21.5
[7]	7.55	-5.65	4.49	-2.17	-1.39
[8]	4.61	7.22	13.7	21.3	37.8
[9]	-4.58	-1.47	11.2	18.6	78.1
[10]	-2.21	28.1	72	84.1	88.6
[11]	-2.27	-0.36	27.9	81.3	96.2
[12]	3.2	10.3	25.1	48.3	74.7
[13]	0.2	-0.57	14.9	31.4	71.2
[15]	2.07	3.56	9.75	17.4	45.1

Conditions	drug sensitivity score
[14]	4.21
[16]	1.31
[17]	12
[18]	8.8
[19]	0
[20]	0
[21]	0.86
[22]	0
[23]	5.22
[24]	7.06
[25]	27.7
[26]	18.4
[27]	12.7
[28]	7.93

CCC1(c2ccc(N)cc2)CCC(=O)NC1=O (stereo not given) [Aminoglutethimide] (max concentration tested 10000 nM)
percent inhibition of viability [%]
Conditions	1 nM	10 nM	100 nM	1000 nM	10000 nM
[1]	4.12	-2.09	1.89	3.88	6.3
[2]	7.96	0.54	12.4	0.81	11.1
[3]	21.1	17.4	10.2	-16	-32.7
[4]	-3.93	-9.4	-1.78	-7.06	21.1
[5]	13.1	2.62	11.4	2.84	12.5
[6]	3.13	3.88	0.19	1.2	8.45
[7]	-5.3	-8.94	-8.74	-4.93	1.17
[8]	6.92	1.97	7.28	-2.32	7.58
[9]	1.84	4.93	3.29	2.36	3.88
[10]	28.3	0.83	18.7	-2.97	15.1
[11]	4.81	6.87	2.26	7.56	4.69
[12]	14	10.4	8.76	9.73	9.01
[13]	16.4	0	11	1.44	15.2
[15]	1.05	-2.97	-1	-2.85	0.83

Conditions	drug sensitivity score
[14]	0
[16]	0
[17]	0
[18]	0
[19]	0.43
[20]	0
[21]	0
[22]	0
[23]	0
[24]	0
[25]	0.06
[26]	0
[27]	0
[28]	0

O=C(O)CC[C@H]1CC[C@@](c2cc(F)ccc2F)(S(=O)(=O)c2ccc(Cl)cc2)CC1 [MK-0752] (max concentration tested 1000 nM)
percent inhibition of viability [%]
Conditions	0.1 nM	1 nM	10 nM	100 nM	1000 nM
[1]	-11.6	-7.52	0.99	-5.48	3.93
[2]	-10.8	-16	2.19	-18.6	9.52
[3]	-1.33	10	0.79	21.6	11.5
[4]	-1.4	-17	-8.36	-13.1	-7.22
[5]	-5.65	-0.71	-6.38	-14.1	8.32
[6]	-9.74	-4.15	-0.03	-3.82	-3.17
[7]	1.14	-1.74	-0.83	-10.7	3.87
[8]	-0.82	-1.19	-2.01	-1.84	0.38
[9]	-1.19	-1.62	3.7	1.88	9.87
[10]	-5.92	-6.47	1.23	0.27	-0.85
[11]	1.77	3.33	4.23	-0.52	12.9
[12]	-5.58	-3.61	-11.2	-10.3	10.8
[13]	2.68	-1.92	2.12	-1.77	2.96
[15]	-3.97	0.91	0.33	10.8	16.2

Conditions	drug sensitivity score
[14]	1.1
[16]	0
[17]	0
[18]	1.21
[19]	0
[20]	0
[21]	0
[22]	0
[23]	0
[24]	0
[25]	0
[26]	0.08
[27]	0
[28]	0
